Earlier results as cited in publication PMC6222927, “Aminobenzosuberone Scaffold as a Modular Chemical Tool for the Inhibition of Therapeutically Relevant M1 Aminopeptidases” (Molecules : A Journal of Synthetic Chemistry and Natural …, 2018).
Read-outs that look alike come from different tables or passages of the source.

Legend:
[1] = target: P. falciparum (PfAM1) M1 aminopeptidase; conditions: cited from earlier work
[2] = target: mammalian aminopeptidase N (mAPN); conditions: cited from earlier work
[3] = target: P. falciparum M17 aminopeptidase (PfAM17); conditions: ref 45; cited from earlier work
[4] = target: human puromycine sensitive aminopeptidase (HsPSA); conditions: cited from earlier work
[5] = test system: E. coli (EcPepN) M1 aminopeptidase; conditions: ref 49; cited from earlier work
[6] = target: human aminopeptidase A (HsAPA); conditions: cited from earlier work
[7] = target: human arginyl aminopeptidase B (HsAPB); conditions: ref 38; cited from earlier work
[8] = target: mammalian cytosolic leucine aminopeptidase (mLAPc); conditions: cited from earlier work
[9] = target: human leukotriene A4 hydrolase (HsLTA4H); conditions: ref 37; cited from earlier work

For NC(CCc1ccccc1)P(=O)(O)CC(Cc1ccccc1)C(=O)O (stereo not drawn) [compound 2], the Ki ([1]; ref 47) is given as 0.079 µM, the Ki ([2]; ref 46) is given as 0.002 µM and the Ki [3] is given as 0.013 µM.

For CCOC(=O)C1=C(Nc2ccccc2)CC(c2ccccn2)N(c2ccccc2)C1c1cccnc1 (stereo not drawn) [compound 4], the IC50 ([4]; ref 49) is listed as 1.79 µM, the Ki ([1]; ref 49) is listed as greater than 100 µM and the Ki ([2]; ref 49) is listed as greater than 100 µM. For the same compound, the Ki [5] was greater than 100 µM.

For NC1Cc2ccc3ccccc3c2CC1=O (stereo not drawn) [compound 5], the Ki ([6]; NI = no inhibition) is listed as greater than 1000 µM, the Ki [7] is listed as greater than 1000 µM and the Ki ([8]; ref 38) is listed as 3 µM.

In the case of N[C@H](CS)CCC(=O)O [compound 6], the Ki ([6]; ref 50) is listed as 0.14 µM.

For CC(C)C[C@@H](C(=O)N[C@H](C(=O)O)c1ccccc1)[C@H](O)C(=O)NO [compound 8], the IC50 ([4]; ref 37) is given as 0.85 µM, the IC50 ([8]; ref 37) is given as 0.03 µM and the IC50 [9] is given as 0.008 µM.

In the case of O=C(CCc1ccc(F)cc1)/C(=C/c1ccccc1)C(=O)NO [compound 10], the IC50 ([1]; ref 35, 53) is listed as 0.006 µM and the IC50 ([2]; ref 35, 53) is listed as 1.37 µM.

In the case of CCc1cccc(CC)c1N1C(=O)c2cccc3cccc(c23)C1=O [compound 12], the IC50 ([4]; ref 55) is listed as 0.8 µM and the Ki ([2]; ref 55) is listed as greater than 100 µM.
